Where a name gives a salt, the structure may show the parent alone. Read-outs that look alike come from different tables or passages of the source.
Experiments:
[1] = target: T1, Acyl-CoA: Cholesterol Acyltransferase (ACAT) (Rattus norvegicus, UniProt Q7TQM4); assay: Inhibition of acyl-CoA: cholesterol acyltransferase (ACAT) in hepatic microsomes (in vitro); assay type: biochemical, rat (male Sprague Dawley)
T1 construct: Microsomes were obtained by differential centrifugation; from tissue; host or cells: liver microsomes of male Sprague Dawley rats
T1 sequence (Q7TQM4 1-524): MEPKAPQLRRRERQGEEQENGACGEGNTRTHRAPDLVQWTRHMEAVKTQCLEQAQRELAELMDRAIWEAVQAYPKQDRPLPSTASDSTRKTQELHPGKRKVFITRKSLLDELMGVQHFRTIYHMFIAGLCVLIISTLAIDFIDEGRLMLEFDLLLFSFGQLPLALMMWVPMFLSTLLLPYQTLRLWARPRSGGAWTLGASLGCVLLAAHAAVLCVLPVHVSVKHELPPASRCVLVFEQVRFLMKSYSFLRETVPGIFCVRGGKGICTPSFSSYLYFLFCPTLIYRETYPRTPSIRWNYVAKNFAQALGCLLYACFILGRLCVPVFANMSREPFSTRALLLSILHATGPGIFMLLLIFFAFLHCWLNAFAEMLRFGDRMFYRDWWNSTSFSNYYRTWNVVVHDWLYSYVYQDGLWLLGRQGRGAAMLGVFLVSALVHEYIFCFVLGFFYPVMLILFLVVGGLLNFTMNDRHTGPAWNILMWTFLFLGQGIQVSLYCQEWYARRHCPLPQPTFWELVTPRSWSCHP
Procedure: A. Assay of the Inhibition of Acyl-CoA: Cholesterol Acyltransferase (ACAT) in Hepatic Microsomes
The ability of the compounds to inhibit ACAT, the enzyme responsible for the intracellular synthesis of cholesteryl esters, was tested as follows. Male Sprague Dawley rats weighing 150-300 g, were fed rat chow ad libitum. The animals were fasted for twenty-four hours prior to being sacrificed by decapitation. The livers were perfused in situ with 50 ml of cold 0.25M sucrose, excised, and homogenized in three volumes of 0.1M phosphate buffer, pH 7.4, that contained 0.5 mM EDTA (ethylenediaminetetraacetic acid), 1.0 mM glutathione, 0.25M sucrose and […]. Microsomes were obtained by differential centrifugation; the supernatant from an initial spin at 15,000×g for 15 minutes was centrifuged at 105,000×g for 1 hour to pellet the microsomes. The microsomes were suspended in homogenization buffer, reisolated by centrifugation, and stored at -70° C. Microsomes were used within one month of preparation.
The control assay in a final volume of 200 μl consisted of 200 μg of microsomal protein, 75 μM ^14 C-oleoyl-CoA (10,000 dpm/nmol) in 0.1M phosphate, pH 7.4, that contained 1 mM glutathione. Compounds were added in 5 μl of DMSO (dimethyl sulfoxide) and additional controls were run with DMSO only. All components, except the oleoyl-CoA, were preincubated for 15 min. at 37° C. prior to the initiation of the reaction by the addition of oleoyl-CoA. The assay was terminated after 10 min by the addition of 4 ml of chloroform:methanol (2:1, v/v). 20,000 dpm of ^3 H-cholesteryl oleate and 10 μg of unlabeled cholesteryl oleate and oleic acid were added as an internal standard and carriers, respectively. After allowing 10 min. for lipid extraction, the samples were centrifuged at 1,000×g for 10 min. to separate the solvent layers. The chloroform layer containing the neutral lipids was spotted onto a Baker SI250-Pa silica gel TLC plate and the plate developed using a hexane: diethyl ether: acetic acid (170:30:1 v/v/v) mobile phase. The lipids were visualized by their interaction with iodine vapor and the cholesteryl ester spot was scraped into a scintillation vial and counted.

[2] = test system: murine macrophage-like cell line J774.A1; assay: Inhibition of cholesterol esterification in mammalian cells (macrophage assay); assay type: cell-based
Procedure: B. Assay of the Inhibition of Cholesterol Esterification in Mammalian Cells
The esterification of cholesterol was determined in the murine macrophage-like cell line J774.A1. Cells were seeded in 35 mm wells at a density of 300,000 cells per well in 2 mls of Dulbecco's Eagle Medium (DMEM) supplemented with 10% fetal bovine serum (FBS). Cells were incubated at 37° C. in an atmosphere of 5% CO2 and 93% humidity. After 24 hours the media was changed to 0.68 mls 10% FBS-DMEM containing 34 μg of acetylated human low density lipoprotein (ac-LDL) to increase the intracellular concentration of cholesterol and promote esterification. At 41 hours, various inhibitors were added to the cells in DMSO (10 μl/ml maximum). At 43 hours, the cells were pulsed with 0.1 mM ^14 C-oleic acid (10,000 dpm/nmol) complexed with BSA (bovine serum albumin) to follow cholesterol ester formation. The experiment was terminated at 45 hours by washing the monolayers 3 times with 3 ml of Tris-buffered saline at 4° C. The lipids were extracted by incubating the monolayers with 1.5 ml of hexane:isopropanol (3:2, v/v) for 30 min. under gentle agitation. During this period, 10,000 dpm 3H-cholesteryl linoleate and 10 μg of cholesteryl oleate were added as an internal standard and carrier respectively. The organic solvent was removed and the cells were washed with an additional 1.0 ml of hexane: isopropanol which was combined with the original extract. The cells were allowed to dry overnight, digested with 1.5 ml of 0.2N sodium hydroxide for 1 hour and an aliquot of the solubilized protein used for protein determination using the Lowry method. The organic extract was taken to dryness, the residue resuspended in 100 μl of chloroform and the lipids separated on silica gel impregnated glass fiber plates using a hexane:diethylether:acetic acid (170:30:1, v/v/v) solvent system. Individual lipids were visualized with iodine and the cholesteryl ester spot cut out and transferred to scintillation vials to determine the amount of radioactivity. The conversion of oleic acid to cholesteryl ester in the control averaged 0.54 […] and was increased upon the addition of ac-LDL to about 10.69±0.69 […]. […] It should be noted that many of the intermediates had inhibitory activity in the in vitro ACAT assay and in the macrophage assay.

[3] = rat hepatic microsomes, 75 μM 14C-oleoyl-CoA, pH 7.4, 37° C., read-out: In Vitro ACAT IC50
[4] = J774.A1 macrophages loaded with ac-LDL, 14C-oleic acid, read-out: Cholesterol Esterification IC50
[5] = In Vitro ACAT IC50, rat hepatic microsomes, 75 μM 14C-oleoyl-CoA, pH 7.4, 37° C.

SMILES	IC50 [1, 3] [nM]	IC50 [2, 4] [nM]	IC50 ([1]; intermediate, read-out: IC50 in the in vitro ACAT assay) [nM]	IC50 ([2]; intermediate, read-out: IC50 in the macrophage assay) [nM]	IC50 [1, 5] [nM]
CCCCCCCN(CCCCCSc1nc(-c2ccc(N(C)C)cc2)c(-c2ccc(N(C)C)cc2)[nH]1)C(=O)Nc1ccc(F)cc1F [Example 197, N-[5-[4,5-bis[4-(dimethylamino)phenyl]-1H-imidazol-2-ylthio]pentyl]-N'-(2,4-difluorophenyl)-N-heptylurea]	119	100			
CCCCCCCN(CCCCCSc1nc(C2CCCCC2)c(C2CCCCC2)[nH]1)C(=O)Nc1ccc(F)cc1F [Example 199, N-[5-(4,5-dicyclohexyl-1H-imidazol-2-ylthio)pentyl]-N'-(2,4-difluorophenyl)-N-heptylurea]	20	600			
CCCCCCCN(CCCCCSc1nc(-c2ccc(OC)cc2)c(-c2ccc(OC)cc2)[nH]1)C(=O)OCC(C)C [Example 457]	834	100			
CCCCCCCN(CCCCCSc1nc2c([nH]1)-c1ccccc1OCOc1ccccc1-2)C(=O)Nc1ccc(F)cc1F [Example 211, N-[5-(1H,9H-dibenz[4,5:8,9][1,3]dioxonino[6,7-d]imidazol-2-ylthio)-pentyl]-N'-(2,4-difluorophenyl)-N-heptylurea]	32	700			
CCCCCCCN(CCCCCSc1nc(C(C)C)c(C(C)C)[nH]1)C(=O)Nc1ccc(F)cc1F [Example 188, N-[5-[4,5-bis(1-methylethyl)-1H-imidazol-2-ylthio]pentyl]-N'-(2,4-difluorophenyl)-N-heptylurea]	20	900			
CCCCCCCN(CCCCCSc1nc(-c2ccc(F)cc2)c(-c2ccc(F)cc2)[nH]1)C(=O)Nc1ccc(F)cc1F [Example 114, N-[5-[4,5-bis(4-fluorophenyl)-1H-imidazol-2-ylthio]pentyl]-N'-(2,4-difluorophenyl)-N-heptylurea]	40	3500			
CCCCCCCNCCCCCSc1nc(-c2ccccc2)c(-c2ccccc2)[nH]1 [N-[5(4,5-diphenyl-1H-imidazol-2-ylthio)pentyl]-1-heptanaminehydrochloride]			100	6000	
CCCCCCCN(CCCC)CCCCCSc1nc(-c2ccccc2)c(-c2ccccc2)[nH]1 [Example 352]	300	2200			
CCCCCCCN(CCCCCSc1nc(-c2ccc(OC)cc2)c(-c2ccc(OC)cc2)[nH]1)C(=O)Oc1ccccc1 [Example 410]		30			640
CCCCCCCN(CCCCCSc1nc(-c2ccc(OC)cc2)c(-c2ccc(OC)cc2)[nH]1)C(=O)Cc1c(F)c(F)c(F)c(F)c1F [Example 350]	605	50			
CCCCCCCN(CCCCCSc1nc(-c2ccccc2)c(-c2ccccc2)[nH]1)C(=O)Nc1ccc(OC)cc1OC [Example 5, N'-(2,4-dimethoxyphenyl)-N-[5-(4,5-diphenyl-1H-imidazol-2-ylthio)pentyl]-N-heptylurea]	12	2500			
CCCCCCCN(CCCCCSc1nc(-c2ccccc2)c(-c2ccccc2)[nH]1)C(=O)OCC(C)C [Example 403, (2-Methylpropyl) [5-(4,5-diphenyl-1H-imidazol-2-ylthio)pentyl]heptylcarbamate]	35	500			
CCCCCCCN(CCCCCSc1nc(-c2ccc(C(F)(F)F)cc2)c(-c2ccc(C(F)(F)F)cc2)[nH]1)C(=O)Nc1ccc(F)cc1F [Example 258]	40000	25000			
COc1ccc(-c2nc(SCCCCCN(C)C(=O)Nc3ccc(F)cc3F)[nH]c2-c2ccc(OC)cc2)cc1 [Example 204]	500	400			
CCCCCCCN(CCCCCSc1nc(-c2ccccc2)c(-c2ccccc2)[nH]1)C(=O)Oc1ccc(F)cc1 [Example 406, (4-fluorophenyl)[5-(4,5-diphenyl-1H-imidazol-2-ylthio)pentyl]heptylcarbamate]		600			10
CCCCCCCN(CCCCCSc1ncc[nH]1)C(=O)Nc1ccc(F)cc1F [Example 186]	2850	6200			
